Laboratory results as given in patent US20020035264A1, “Ophthalmic formulation of a selective cyclooxygenase-2 inhibitory drug” (priority 2000, published 2002).
“Also recorded” adds a separate entry of the source.

Assay: Ocular versus oral delivery of valdecoxib nanoparticle suspensions; drug concentration in eye tissues and plasma by LC-MS
Assay type: in vivo, New Zealand white rabbits
Conditions: rabbit
Description: Oral and ophthalmic suspensions of valdecoxib nanoparticles were prepared. […] The two carrageenan excipients are both ι-carrageenans with slightly different chemical and physical properties.
Eighteen male New Zealand white rabbits weighing from 1.8-2.5 kg were provided as test animals and divided into three lots containing six rabbits each.
Selected eye tissues, aqueous humor, bulbar conjunctiva, cornea, eyelids, vitreous humor and sclera, were excised at the time of sacrifice, weighed directly into tared vials, solubilized and/or diluted as necessary, and analyzed by HPLC-MS. Just prior to sacrifice, 0.5 mL of a blood sample was collected from the ear central artery via a syringe, placed into a K2-EDTA vacutainer, mixed gently and stored on ice up to one hour prior to centrifuging to separate the plasma. The plasma was stored at −10° C. or colder until analysis.

[1] = four hours after administration, FIGS. 2 and 3

Cc1onc(-c2ccccc2)c1-c1ccc(S(N)(=O)=O)cc1 [valdecoxib, 4-[5-methyl-3-phenylisoxazol-4-yl]-benzenesulfonamide]
delivery of the drug to the eye (conjunctiva, cornea, aqueous humor concentration), ocular versus oral administration [1]: much more effective in delivering the drug to the eye than oral administration | systemic (plasma) concentration of the drug, ocular versus oral administration [1]: avoids the high systemic (plasma) concentration | concentration of the drug in the conjunctiva versus time, ocular versus oral delivery (single ocular dose 25 μL ophthalmic suspension per eye (about 0.1 mg) vs oral 0.5 mg/kg, 0.5, 2 and 4 hours, FIG. 1, 0.5 mg/kg): much higher initial concentration; also recorded: maintained this higher concentration over time
